Data on 1 molecule can be found in patent US5994363A (priority 1998, dated 1999).

A short description of one data set: clinical. To be noted: human, plasma.
The conditions of data set [1]: cited from earlier work.
The conditions of data set [2]: cited from earlier work. The source holds these as a separate data set.
Data set [3] in a line: Apomorphine in human patients: erection and side effects (prior studies / general findings). Conditions: apomorphine dosage forms. It counts as in vivo. An excerpt:
The specific mechanisms by which apomorphine acts to produce an erectile response in a human patient are not yet completely understood, however.

A short description of data set [4]: Plasma concentration or dose threshold for adverse effects.
The conditions of data set [5]: cited from earlier work. This is another data set of the same source.
Data set [6] is described as follows: Adverse events in escalating dose tolerance study in psychogenic male erectile dysfunction (Example 5). It counts as in vivo, human. To be noted: in vivo. How it is done:
Example 5-Summary. This clinical study was conducted in three phases. In Phase 1 subjects were selected from among patients complaining of impotence by a thorough physiological and psychological assessment. For example, one step in the assessment process required candidates to undergo Rigiscan measurement of penile rigidity and circumference following administration of a placebo tablet in single blind fashion. Phase 2 consisted of a dose escalation (4, 6, and 8 mg tablets) administered on 4 visits. An out-patient phase was conducted as Phase 3. Patients were given apomorphine HCL tablets to use at home.
Example-5 Detailed Description (Clinical Study #94-03-01). The human study was conducted in three separate phases. Phase 1 consisted of selecting appropriate subjects and obtaining baseline information on sexual performance for each subject.
They were tested on four separate days at four separate doses (placebo and three active medication doses) with an interval of no less than six days between visits (i.e., one visit per week).
If the trial was aborted, the patient was given the choice of having Gravol 50 mg p.o. (an anti-emetic) administered at that time or enduring the adverse events as they arose. In either event, the patient was monitored by the research clinician until all side-effects had subsided. The patient was asked to return the following week for the next scheduled dose.
During the five-week, home-use phase, subjects were to attempt coitus at least once each week after taking a single APO tablet. After each attempt, the subject and their partner completed a Sexual Function questionnaire (See FIGS. 15 and 16) which was later evaluated and used for final statistical analysis.
The data was analyzed by an inspection of the reported adverse events, the given dose of apomorphine and the phase of the study, i.e., in-patient (dose escalating) or take-home (constant dose) phases.

The nature of data set [7]: Plasma concentration profile in dog at day 1, 90 and 180 (Example 2). It counts as in vivo. Conditions: day 1, day 90 or day 180, 0.04, 0.1, 0.4 mg/kg.
Protocol: To assess whether the reduction in side effects could be attributable to changes in pharmacokinetic response, a plasma concentration profile study was conducted for each dosage group at day 1, day 90 and day 180.
A short description of data set [8]: Bioavailability by route of administration in dog (Example 3). To be noted: in vivo.
Data set [9] is described as follows: Nerve stimulated clitoral and vaginal wall blood flow in females. It counts as in vivo. To be noted: administration to females.
Data set [10] is described as follows: Pharmacokinetic comparison of 4- and 8-mg sublingual tablets with 1 mg i.v. in healthy male volunteers (Example 4).

With `CN1CCc2cccc3c2[C@H]1Cc1ccc(O)c(O)c1-3` [apomorphine, (R)-5,6,6a,7-Tetrahydro-6-methyl-4H-dibenzo-[de,g] quinoline-10,11-diol], the AUC in “clinical” (4 mg) is 0.527 ng·h/mL; in the data set “clinical” (8 mg) it was 4.72 ng·h/mL; in the data set “clinical” (iv, 1 mg), 3.45 ng·h/mL; in [8] (0.2 mg/kg) it was 5.45 ng·h/mL; in data set [8] (po, 0.2 mg/kg), 1.58 ng·h/mL; in [8] (sc, 0.04 mg/kg), 8.06 ng·h/mL. For the same molecule, the highest concentration (Cmax) in the data set “clinical” (4 mg) was found to be 0.83 ng/mL; in the data set “clinical” (iv, 1 mg) it was 8.3 ng/mL. In [1] (large doses, mammals such as humans, dogs), the “nausea and vomiting after large doses” value was “usually results in nausea and vomiting”. Moreover, the emetic dose in data set [1] (subcutaneous, recognized use as an emetic) is given as about 5 milligram. Moreover, the “lethality of larger infusion dose” value in data set [2] (1,500 μg/kg/hr, 14 day study) is listed as “minimally lethal”. Further, in [2] (continuous infusion, 14 days), the “tolerated continuous infusion dose” value is 420 µg/kg/h. The “effectiveness in Parkinson's disease and psychogenic erectile dysfunction” value in data set [3] is “effective”. Besides, the “plasma concentration at which incidence of adverse side effects is minimal” value in [4] (plasma concentration maintained at no more than) was “no more than 5.5 ng/ml”. For the same molecule, the “threshold concentration (Cmax) for onset of adverse effects” value in data set [4] (plasma, human male subjects, nausea) is recorded as “about 2.5 nanograms/milliliter”. For the same molecule, the “threshold dose for most impotence patients” value in data set [4] (sublingual tablet, week 1) came out at 2 mg. For the same molecule, the “side effects / therapeutic usefulness (Segraves)” value in data set [5] (erectile responses in human males) is listed as “too many side effects to have therapeutic usefulness”. The “erection in psychogenic male patients” value in data set [5] (psychogenic impotence) is listed as “can indeed induce an erection in a psychogenic patient”. Moreover, the “side effects at dose required for significant erectile response” value in [5] (psychogenic impotence) was “usually accompanied by nausea or other serious undesirable side effects, including hypertension, flushing and diaphoresis (sweating)”. Besides, the “blood or urinalysis values” in data set [6] is “no clinically significant changes”. Besides, in data set [7], the “AUC, distribution, or elimination over repeated dosing” value was “No evidence of significant changes”. Also, the “nerve stimulated clitoral intracavernosal and vaginal wall blood flow” value in data set [9] is “increases nerve stimulated clitoral intracavernosal blood flow and vaginal wall blood flow”. Further, the “MRT (mean residual time)” value in data set [10] (i.v. 1 mg) worked out at 40.3 min. For the same molecule, in data set [10] (s.l. tablet 8 mg), the “Vd (volume of distribution @ β stage)” value is 2.07 L/kg.

What is called AUC is concentration integrated over time. A higher AUC goes with high exposure. The Cmax is the maximum level reached in the sampled fluid or tissue.
